{"source": "paper PMC11233931", "about": "“Remodeling tumor‐associated macrophage for anti‐cancer effects by rational design of irreversible inhibition of mitogen‐activated protein kinase‐activated protein kinase 2” (MedComm, 2024)", "assay_in_all_cases": "Eurofins kinase selectivity profile against 380 other human recombinant kinases (Table S2)", "format_in_all_cases": "biochemical", "key": {"[1]": {"biological_target": "T1, 380 human recombinant protein kinases (Homo sapiens, UniProt Q04771)", "T1 construct": "purchased Eurofins (Celle Lévescault)", "T1 sequence (Q04771 21-509)": "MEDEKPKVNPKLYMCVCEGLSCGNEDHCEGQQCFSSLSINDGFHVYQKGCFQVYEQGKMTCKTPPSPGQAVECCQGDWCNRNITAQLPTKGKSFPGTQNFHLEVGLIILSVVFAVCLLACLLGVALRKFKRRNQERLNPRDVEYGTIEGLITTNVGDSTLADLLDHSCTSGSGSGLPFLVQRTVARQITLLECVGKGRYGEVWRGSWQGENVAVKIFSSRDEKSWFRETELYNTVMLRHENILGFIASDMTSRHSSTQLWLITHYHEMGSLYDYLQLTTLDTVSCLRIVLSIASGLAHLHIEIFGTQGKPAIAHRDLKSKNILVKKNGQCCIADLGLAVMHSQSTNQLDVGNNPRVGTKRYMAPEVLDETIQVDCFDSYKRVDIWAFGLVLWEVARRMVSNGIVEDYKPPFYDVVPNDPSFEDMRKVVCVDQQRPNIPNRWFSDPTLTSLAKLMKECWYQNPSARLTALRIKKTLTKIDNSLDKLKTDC", "settings": "ALK2(h), read-out: Inhibition rate", "in_short": "(§1)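 Values come from a contract kinase-profiling service that tested the compound at multiple concentrations across 380 recombinant human kinases, as an off-target check against the MK2 activity.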"}, "[2]": {"biological_target": "T2, 380 human recombinant protein kinases (Homo sapiens, UniProt P49674)", "T2 construct": "purchased Eurofins (Celle Lévescault)", "T2 sequence (P49674 whole entry)": "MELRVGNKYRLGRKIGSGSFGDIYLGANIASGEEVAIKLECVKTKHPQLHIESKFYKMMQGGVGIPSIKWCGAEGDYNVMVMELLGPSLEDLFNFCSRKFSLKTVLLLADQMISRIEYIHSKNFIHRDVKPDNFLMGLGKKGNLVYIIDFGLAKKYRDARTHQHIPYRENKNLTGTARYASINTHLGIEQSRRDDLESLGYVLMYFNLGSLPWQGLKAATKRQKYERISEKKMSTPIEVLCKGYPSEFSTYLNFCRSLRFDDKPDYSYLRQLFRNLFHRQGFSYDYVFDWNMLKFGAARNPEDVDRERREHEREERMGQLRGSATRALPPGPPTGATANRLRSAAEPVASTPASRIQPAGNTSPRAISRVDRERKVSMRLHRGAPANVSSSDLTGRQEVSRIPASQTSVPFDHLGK", "settings": "CK1ε(h), read-out: Inhibition rate", "in_short": "as §1"}, "[3]": {"biological_target": "T3, 380 human recombinant protein kinases (Homo sapiens, UniProt P17612)", "T3 construct": "purchased Eurofins (Celle Lévescault)", "settings": "PKA(h), read-out: Inhibition rate", "in_short": "as §1"}, "[4]": {"biological_target": "T4, 380 human recombinant protein kinases (Homo sapiens, UniProt P11802)", "T4 construct": "purchased Eurofins (Celle Lévescault)", "T4 sequence (P11802 whole entry)": "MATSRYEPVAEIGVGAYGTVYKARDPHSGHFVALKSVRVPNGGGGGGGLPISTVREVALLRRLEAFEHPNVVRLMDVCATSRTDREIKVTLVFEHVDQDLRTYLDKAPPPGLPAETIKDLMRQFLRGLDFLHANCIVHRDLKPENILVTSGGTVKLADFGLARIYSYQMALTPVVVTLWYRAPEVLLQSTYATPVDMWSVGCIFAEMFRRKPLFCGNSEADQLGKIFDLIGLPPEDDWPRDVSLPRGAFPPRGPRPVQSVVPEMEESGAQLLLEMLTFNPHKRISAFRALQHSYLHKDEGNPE", "settings": "CDK4/cyclinD3(h), read-out: Inhibition rate", "in_short": "as §1"}, "[5]": {"biological_target": "T5, 380 human recombinant protein kinases (Homo sapiens, UniProt Q15418)", "T5 construct": "purchased Eurofins (Celle Lévescault)", "T5 sequence (Q15418 whole entry)": "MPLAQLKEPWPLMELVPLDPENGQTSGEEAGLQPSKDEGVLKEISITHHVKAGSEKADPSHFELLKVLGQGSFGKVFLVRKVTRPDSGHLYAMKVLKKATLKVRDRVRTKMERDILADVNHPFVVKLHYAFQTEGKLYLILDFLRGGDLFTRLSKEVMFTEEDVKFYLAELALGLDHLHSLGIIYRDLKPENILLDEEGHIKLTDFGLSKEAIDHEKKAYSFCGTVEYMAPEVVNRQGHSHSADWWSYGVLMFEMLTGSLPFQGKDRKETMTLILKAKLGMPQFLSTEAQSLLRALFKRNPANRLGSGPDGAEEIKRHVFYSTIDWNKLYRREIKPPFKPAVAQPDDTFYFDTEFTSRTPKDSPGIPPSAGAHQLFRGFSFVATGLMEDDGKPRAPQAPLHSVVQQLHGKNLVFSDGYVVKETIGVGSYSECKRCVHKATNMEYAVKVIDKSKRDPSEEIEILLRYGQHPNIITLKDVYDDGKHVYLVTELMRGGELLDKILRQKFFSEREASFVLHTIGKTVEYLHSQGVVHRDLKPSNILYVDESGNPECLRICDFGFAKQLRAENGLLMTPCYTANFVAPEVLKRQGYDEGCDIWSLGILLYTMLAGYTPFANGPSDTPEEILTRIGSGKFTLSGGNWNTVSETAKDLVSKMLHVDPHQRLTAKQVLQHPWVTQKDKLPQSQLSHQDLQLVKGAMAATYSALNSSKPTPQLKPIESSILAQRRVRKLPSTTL", "settings": "Rsk1(h), read-out: Inhibition rate", "in_short": "as §1"}, "[6]": {"biological_target": "T6, 380 human recombinant protein kinases (Homo sapiens, UniProt Q16513)", "T6 construct": "purchased Eurofins (Celle Lévescault)", "T6 sequence (Q16513 whole entry)": "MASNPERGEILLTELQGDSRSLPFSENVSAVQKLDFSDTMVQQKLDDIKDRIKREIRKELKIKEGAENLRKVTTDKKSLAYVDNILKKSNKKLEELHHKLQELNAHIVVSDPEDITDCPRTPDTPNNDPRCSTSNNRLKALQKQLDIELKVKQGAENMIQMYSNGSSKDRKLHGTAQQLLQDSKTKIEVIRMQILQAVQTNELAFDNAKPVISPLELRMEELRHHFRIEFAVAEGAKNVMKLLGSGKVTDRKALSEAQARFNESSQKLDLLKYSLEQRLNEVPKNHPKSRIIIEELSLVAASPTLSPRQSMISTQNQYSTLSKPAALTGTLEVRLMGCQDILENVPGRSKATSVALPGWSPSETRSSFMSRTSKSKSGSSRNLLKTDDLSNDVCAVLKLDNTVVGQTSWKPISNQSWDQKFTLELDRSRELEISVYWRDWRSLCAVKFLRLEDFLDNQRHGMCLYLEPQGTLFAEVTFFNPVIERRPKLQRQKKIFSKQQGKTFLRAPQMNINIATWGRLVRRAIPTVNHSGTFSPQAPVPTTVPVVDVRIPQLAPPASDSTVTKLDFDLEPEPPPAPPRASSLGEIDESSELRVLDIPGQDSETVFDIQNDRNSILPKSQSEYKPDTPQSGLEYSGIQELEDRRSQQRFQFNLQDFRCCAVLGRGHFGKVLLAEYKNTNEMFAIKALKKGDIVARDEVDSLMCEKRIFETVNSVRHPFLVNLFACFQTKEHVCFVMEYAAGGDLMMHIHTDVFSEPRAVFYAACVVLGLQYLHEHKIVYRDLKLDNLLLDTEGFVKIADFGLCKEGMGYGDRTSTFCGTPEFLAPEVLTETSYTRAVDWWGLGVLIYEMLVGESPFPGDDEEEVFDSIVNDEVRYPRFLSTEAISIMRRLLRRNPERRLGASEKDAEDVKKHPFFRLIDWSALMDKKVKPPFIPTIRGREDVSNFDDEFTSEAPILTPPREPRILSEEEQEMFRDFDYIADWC", "settings": "PRK2(h), read-out: Inhibition rate", "in_short": "as §1"}, "[7]": {"biological_target": "T7, 380 human recombinant protein kinases (Homo sapiens, UniProt P51812)", "T7 construct": "purchased Eurofins (Celle Lévescault)", "T7 sequence (P51812 whole entry)": "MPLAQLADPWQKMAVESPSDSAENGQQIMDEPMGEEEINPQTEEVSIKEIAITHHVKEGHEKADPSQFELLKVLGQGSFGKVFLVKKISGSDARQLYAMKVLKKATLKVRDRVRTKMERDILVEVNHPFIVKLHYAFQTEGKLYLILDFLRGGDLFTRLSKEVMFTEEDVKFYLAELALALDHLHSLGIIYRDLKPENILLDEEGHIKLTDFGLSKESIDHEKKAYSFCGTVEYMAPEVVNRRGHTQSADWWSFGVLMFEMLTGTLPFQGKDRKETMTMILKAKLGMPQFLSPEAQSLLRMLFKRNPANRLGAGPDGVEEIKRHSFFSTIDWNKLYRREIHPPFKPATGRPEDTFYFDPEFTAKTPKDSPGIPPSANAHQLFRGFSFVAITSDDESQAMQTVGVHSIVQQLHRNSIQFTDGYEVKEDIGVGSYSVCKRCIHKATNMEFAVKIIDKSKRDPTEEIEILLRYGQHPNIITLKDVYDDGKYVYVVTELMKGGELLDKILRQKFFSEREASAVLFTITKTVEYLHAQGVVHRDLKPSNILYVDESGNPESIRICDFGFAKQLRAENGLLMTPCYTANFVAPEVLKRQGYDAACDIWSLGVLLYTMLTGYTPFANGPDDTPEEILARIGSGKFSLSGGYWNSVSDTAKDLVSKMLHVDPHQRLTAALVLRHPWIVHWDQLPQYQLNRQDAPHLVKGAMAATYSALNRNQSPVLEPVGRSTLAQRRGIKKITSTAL", "settings": "Rsk2(h), read-out: Inhibition rate (%)", "in_short": "as §1"}, "[8]": {"biological_target": "T8, 380 human recombinant protein kinases (Homo sapiens, UniProt Q14004)", "T8 construct": "purchased Eurofins (Celle Lévescault)", "T8 sequence (Q14004 whole entry)": "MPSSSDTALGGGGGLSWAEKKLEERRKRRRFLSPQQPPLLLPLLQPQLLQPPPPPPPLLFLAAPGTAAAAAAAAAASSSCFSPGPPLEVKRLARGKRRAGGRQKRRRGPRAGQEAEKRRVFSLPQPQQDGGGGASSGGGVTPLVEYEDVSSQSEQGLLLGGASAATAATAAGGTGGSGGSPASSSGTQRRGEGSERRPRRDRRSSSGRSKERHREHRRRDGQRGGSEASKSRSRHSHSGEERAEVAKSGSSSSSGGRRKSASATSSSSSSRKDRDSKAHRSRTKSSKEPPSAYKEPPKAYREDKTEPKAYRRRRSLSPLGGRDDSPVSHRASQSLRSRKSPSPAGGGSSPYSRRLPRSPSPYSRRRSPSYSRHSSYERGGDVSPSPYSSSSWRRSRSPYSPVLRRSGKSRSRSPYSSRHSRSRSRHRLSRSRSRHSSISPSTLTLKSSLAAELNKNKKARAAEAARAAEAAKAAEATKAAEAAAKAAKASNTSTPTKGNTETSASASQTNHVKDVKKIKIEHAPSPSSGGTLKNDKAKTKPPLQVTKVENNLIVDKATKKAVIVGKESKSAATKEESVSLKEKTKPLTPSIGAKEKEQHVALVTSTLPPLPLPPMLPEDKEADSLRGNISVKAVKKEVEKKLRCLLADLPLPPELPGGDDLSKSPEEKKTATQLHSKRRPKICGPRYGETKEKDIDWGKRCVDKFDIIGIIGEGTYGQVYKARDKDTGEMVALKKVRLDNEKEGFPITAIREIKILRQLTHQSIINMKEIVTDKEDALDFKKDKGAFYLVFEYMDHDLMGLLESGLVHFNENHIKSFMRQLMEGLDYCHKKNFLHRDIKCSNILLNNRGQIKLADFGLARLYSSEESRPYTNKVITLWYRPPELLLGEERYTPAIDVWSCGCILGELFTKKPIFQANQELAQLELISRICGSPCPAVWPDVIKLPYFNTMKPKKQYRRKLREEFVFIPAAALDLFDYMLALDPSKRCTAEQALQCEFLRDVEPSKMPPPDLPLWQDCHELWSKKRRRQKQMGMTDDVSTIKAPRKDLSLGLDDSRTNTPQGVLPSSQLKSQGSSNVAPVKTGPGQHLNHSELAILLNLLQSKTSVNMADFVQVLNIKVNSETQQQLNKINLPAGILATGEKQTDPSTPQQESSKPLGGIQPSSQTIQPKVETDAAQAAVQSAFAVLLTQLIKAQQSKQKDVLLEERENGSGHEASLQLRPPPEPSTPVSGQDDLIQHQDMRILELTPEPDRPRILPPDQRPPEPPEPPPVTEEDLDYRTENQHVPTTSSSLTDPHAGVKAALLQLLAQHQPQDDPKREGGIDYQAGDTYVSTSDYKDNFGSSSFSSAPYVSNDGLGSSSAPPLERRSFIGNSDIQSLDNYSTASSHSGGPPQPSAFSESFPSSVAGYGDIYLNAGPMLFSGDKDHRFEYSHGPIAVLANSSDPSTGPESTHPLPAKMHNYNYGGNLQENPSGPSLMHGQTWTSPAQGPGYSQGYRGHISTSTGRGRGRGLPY", "settings": "CDK13/cyclinK(h), read-out: Inhibition rate", "in_short": "as §1"}, "[9]": {"biological_target": "T9, 380 human recombinant protein kinases (Homo sapiens, UniProt Q9UEW8)", "T9 construct": "purchased Eurofins (Celle Lévescault)", "settings": "STK39(h), read-out: Inhibition rate (%)", "in_short": "as §1"}, "[10]": {"biological_target": "T10, 380 human recombinant protein kinases (Homo sapiens, UniProt O94806)", "T10 construct": "purchased Eurofins (Celle Lévescault)", "T10 sequence (O94806 1-890)": "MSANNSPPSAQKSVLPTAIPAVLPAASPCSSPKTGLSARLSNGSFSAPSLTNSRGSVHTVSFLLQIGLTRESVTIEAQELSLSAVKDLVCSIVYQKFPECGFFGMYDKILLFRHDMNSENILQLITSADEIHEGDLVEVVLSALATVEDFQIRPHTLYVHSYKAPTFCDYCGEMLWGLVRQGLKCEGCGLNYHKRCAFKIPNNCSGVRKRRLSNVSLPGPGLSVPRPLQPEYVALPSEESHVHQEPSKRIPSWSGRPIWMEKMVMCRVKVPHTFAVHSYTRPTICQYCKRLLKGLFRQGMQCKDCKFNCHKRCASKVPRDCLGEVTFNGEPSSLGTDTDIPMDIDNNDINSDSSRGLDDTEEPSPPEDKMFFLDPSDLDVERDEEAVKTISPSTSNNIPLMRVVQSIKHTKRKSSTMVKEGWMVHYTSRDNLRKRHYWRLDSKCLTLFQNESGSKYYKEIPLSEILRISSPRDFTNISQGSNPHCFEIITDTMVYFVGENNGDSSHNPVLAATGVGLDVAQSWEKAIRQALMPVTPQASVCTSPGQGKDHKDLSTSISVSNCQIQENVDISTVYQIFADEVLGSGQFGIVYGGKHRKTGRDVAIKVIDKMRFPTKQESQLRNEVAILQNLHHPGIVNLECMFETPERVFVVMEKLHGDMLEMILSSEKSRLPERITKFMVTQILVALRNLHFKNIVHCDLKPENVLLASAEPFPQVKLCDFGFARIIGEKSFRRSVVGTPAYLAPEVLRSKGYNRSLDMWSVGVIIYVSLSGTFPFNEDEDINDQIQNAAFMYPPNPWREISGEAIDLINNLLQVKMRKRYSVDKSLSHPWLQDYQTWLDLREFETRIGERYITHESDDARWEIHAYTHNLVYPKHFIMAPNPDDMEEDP", "settings": "PKD3(h), read-out: Inhibition rate", "in_short": "as §1"}}, "data": [{"compound": "C=CC(=O)Nc1cc(-c2cc(-c3cc4c([nH]3)CCNC4=O)ccn2)ccc1OC(F)(F)F", "note": "[compound 11]", "values": [{"measurement": "inhibition at 0.01 µM", "setting": "[1]; 10 nM", "value": -4, "unit": "%"}, {"measurement": "inhibition at 0.1 µM", "setting": "[1]; 100 nM", "value": -6, "unit": "%"}, {"measurement": "inhibition at 1 µM", "setting": "[1]; 1000 nM", "value": 0, "unit": "%"}, {"measurement": "inhibition at 0.01 µM", "setting": "[2]; 10 nM", "value": -5, "unit": "%"}, {"measurement": "inhibition at 0.1 µM", "setting": "[2]; 100 nM", "value": 4, "unit": "%"}, {"measurement": "inhibition at 1 µM", "setting": "[2]; 1000 nM", "value": 34, "unit": "%"}, {"measurement": "inhibition at 0.01 µM", "setting": "[3]; 10 nM", "value": -7, "unit": "%"}, {"measurement": "inhibition at 0.1 µM", "setting": "[3]; 100 nM", "value": -7, "unit": "%"}, {"measurement": "inhibition at 1 µM", "setting": "[3]; 1000 nM", "value": -6, "unit": "%"}, {"measurement": "inhibition at 0.01 µM", "setting": "[4]; 10 nM", "value": 3, "unit": "%"}, {"measurement": "inhibition at 0.1 µM", "setting": "[4]; 100 nM", "value": 0, "unit": "%"}, {"measurement": "inhibition at 1 µM", "setting": "[4]; 1000 nM", "value": 2, "unit": "%"}, {"measurement": "inhibition at 0.01 µM", "setting": "[5]; 10 nM", "value": -2, "unit": "%"}, {"measurement": "inhibition at 0.1 µM", "setting": "[5]; 100 nM", "value": -3, "unit": "%"}, {"measurement": "inhibition at 1 µM", "setting": "[5]; 1000 nM", "value": -7, "unit": "%"}, {"measurement": "inhibition at 0.01 µM", "setting": "[6]; 10 nM", "value": -2, "unit": "%"}, {"measurement": "inhibition at 0.1 µM", "setting": "[6]; 100 nM", "value": 3, "unit": "%"}, {"measurement": "inhibition at 1 µM", "setting": "[6]; 1000 nM", "value": 5, "unit": "%"}, {"measurement": "inhibition at 0.01 µM", "setting": "[7]; 10 nM", "value": -6, "unit": "%"}, {"measurement": "inhibition at 0.1 µM", "setting": "[7]; 100 nM", "value": -11, "unit": "%"}, {"measurement": "inhibition at 1 µM", "setting": "[7]; 1000 nM", "value": -3, "unit": "%"}, {"measurement": "inhibition at 0.01 µM", "setting": "[8]; 10 nM", "value": 1, "unit": "%"}, {"measurement": "inhibition at 0.1 µM", "setting": "[8]; 100 nM", "value": 7, "unit": "%"}, {"measurement": "inhibition at 1 µM", "setting": "[8]; 1000 nM", "value": 9, "unit": "%"}, {"measurement": "inhibition at 0.01 µM", "setting": "[9]; 10 nM", "value": -10, "unit": "%"}, {"measurement": "inhibition at 0.1 µM", "setting": "[9]; 100 nM", "value": -4, "unit": "%"}, {"measurement": "inhibition at 1 µM", "setting": "[9]; 1000 nM", "value": 5, "unit": "%"}, {"measurement": "inhibition at 0.01 µM", "setting": "[10]; 10 nM", "value": 4, "unit": "%"}, {"measurement": "inhibition at 0.1 µM", "setting": "[10]; 100 nM", "value": 15, "unit": "%"}, {"measurement": "inhibition at 1 µM", "setting": "[10]; 1000 nM", "value": 55, "unit": "%"}]}]}
